{"source": "patent US10517889B2", "about": "“Modulators of SMAD7 expression” (Ionis Pharmaceuticals, Inc., priority 2017, dated 2019)", "note": "Strand notation (5' to 3'): a small letter for the sugar, then the base; units joined by * are phosphorothioate-linked, units joined directly phosphodiester-linked; [ ] holds rarer units or linkages, { } end groups; capitals alone tell only the bases. k = constrained ethyl (cEt); [5mC] = 5-methylcytosine; d = 2'-deoxy (DNA)", "data": [{"test_system": "human SMAD7 mRNA", "experiment": "Antisense inhibition of human SMAD7 mRNA expression in Hep3B cells by 3-10-3 cEt gapmers, 10,000 nM, electroporation (Example 2)", "format": "cell-based", "settings": "Hep3B cells, electroporation with 10,000 nM antisense oligonucleotide, approximately 24 hours, SMAD7 mRNA by RT-PCR (RTS5062), relative to untreated control cells", "procedure,_shortened": "(§1)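 qRT-PCR (RTS5062) of SMAD7 mRNA, normalised to RIBOGREEN total RNA, gave percent inhibition relative to untreated controls. Hep3B cells at 20,000 per well received 10,000 nM oligonucleotide by electroporation, with ~24 h treatment.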", "units": {"% Inhibition": "%"}, "values": [{"substance": "798755 (kG*k[5mC]*k[5mC]*d[5mC]*dA*dG*d[5mC]*d[5mC]*dT*dG*d[5mC]*dA*dG*kT*k[5mC]*k[5mC]; antisense) [compound 798755]", "% Inhibition": 46}, {"substance": "798756 (k[5mC]*kG*k[5mC]*d[5mC]*d[5mC]*d[5mC]*d[5mC]*dG*dG*dG*d[5mC]*d[5mC]*d[5mC]*kA*kG*k[5mC]; antisense) [compound 798756]", "% Inhibition": 16}, {"substance": "798757 (kG*k[5mC]*kG*d[5mC]*dA*dG*dG*d[5mC]*dT*dG*d[5mC]*dG*d[5mC]*kG*k[5mC]*k[5mC]; antisense) [compound 798757]", "% Inhibition": 0}, {"substance": "798766 (k[5mC]*kT*kG*dA*dA*d[5mC]*dA*d[5mC]*dT*dT*dT*dG*d[5mC]*kA*k[5mC]*kA; antisense) [compound 798766]", "% Inhibition": 34}, {"substance": "798767 (kT*k[5mC]*k[5mC]*dG*dG*d[5mC]*d[5mC]*dA*d[5mC]*d[5mC]*dT*dG*dA*kA*k[5mC]*kA; antisense) [compound 798767]", "% Inhibition": 0}, {"substance": "798768 (kG*kA*kG*dA*dT*d[5mC]*d[5mC]*dG*dG*d[5mC]*d[5mC]*dA*d[5mC]*k[5mC]*kT*kG; antisense) [compound 798768]", "% Inhibition": 42}, {"substance": "798769 (k[5mC]*k[5mC]*kT*dG*dA*dG*dA*dT*d[5mC]*d[5mC]*dG*dG*d[5mC]*k[5mC]*kA*k[5mC]; antisense) [compound 798769]", "% Inhibition": 58}, {"substance": "798770 (kA*kG*kG*dA*dA*dT*dG*d[5mC]*d[5mC]*dT*dG*dA*dG*kA*kT*k[5mC]; antisense) [compound 798770]", "% Inhibition": 47}, {"substance": "798771 (k[5mC]*k[5mC]*kG*dA*dG*dG*dA*dA*dT*dG*d[5mC]*d[5mC]*dT*kG*kA*kG; antisense) [compound 798771]", "% Inhibition": 62}, {"substance": "798772 (k[5mC]*kT*kT*d[5mC]*d[5mC]*dG*dA*dG*dG*dA*dA*dT*dG*k[5mC]*k[5mC]*kT; antisense) [compound 798772]", "% Inhibition": 48}, {"substance": "798782 (kT*kG*k[5mC]*dA*dG*d[5mC]*dA*d[5mC]*dA*d[5mC]*d[5mC]*dA*dG*k[5mC]*kT*k[5mC]; antisense) [compound 798782]", "% Inhibition": 51}, {"substance": "798783 (k[5mC]*kG*kG*d[5mC]*dT*dA*dA*dG*dG*dT*dG*dA*dT*kG*kG*kG; antisense) [compound 798783]", "% Inhibition": 45}, {"substance": "798784 (kG*kA*kG*dT*d[5mC]*dG*dG*d[5mC]*dT*dA*dA*dG*dG*kT*kG*kA; antisense) [compound 798784]", "% Inhibition": 35}, {"substance": "798811 (k[5mC]*kA*kG*dA*dA*dG*dA*dA*dG*dT*dT*dG*dG*kG*kA*kA; antisense) [compound 798811]", "% Inhibition": 1}, {"substance": "798812 (k[5mC]*kT*k[5mC]*d[5mC]*dA*dG*dA*dA*dG*dA*dA*dG*dT*kT*kG*kG; antisense) [compound 798812]", "% Inhibition": 0}, {"substance": "798813 (k[5mC]*k[5mC]*kG*dA*dT*d[5mC]*d[5mC]*d[5mC]*d[5mC]*dA*dG*dG*d[5mC]*kT*k[5mC]*k[5mC]; antisense) [compound 798813]", "% Inhibition": 23}, {"substance": "798814 (kA*k[5mC]*k[5mC]*dA*dG*dT*dG*dT*dG*dA*d[5mC]*d[5mC]*dG*kA*kT*k[5mC]; antisense) [compound 798814]", "% Inhibition": 25}, {"substance": "798815 (k[5mC]*kG*k[5mC]*dA*d[5mC]*d[5mC]*dA*dG*dT*dG*dT*dG*dA*k[5mC]*k[5mC]*kG; antisense) [compound 798815]", "% Inhibition": 45}, {"substance": "798816 (k[5mC]*k[5mC]*kA*d[5mC]*dG*d[5mC]*dA*d[5mC]*d[5mC]*dA*dG*dT*dG*kT*kG*kA; antisense) [compound 798816]", "% Inhibition": 24}, {"substance": "798817 (kG*k[5mC]*k[5mC]*dA*d[5mC]*d[5mC]*dA*d[5mC]*dG*d[5mC]*dA*d[5mC]*d[5mC]*kA*kG*kT; antisense) [compound 798817]", "% Inhibition": 26}]}, {"test_system": "human SMAD7 mRNA", "experiment": "Antisense inhibition of human SMAD7 mRNA expression in Hep3B cells by 3-10-3 cEt gapmers, 10,000 nM, electroporation (Example 2)", "format": "cell-based", "settings": "Hep3B cells, electroporation with 10,000 nM antisense oligonucleotide, approximately 24 hours, primer probe set RTS5062, relative to untreated control cells", "procedure,_shortened": "as §1", "units": {"% inhibition of SMAD7 mRNA expression": "%"}, "values": [{"substance": "798758 (kG*k[5mC]*kT*dG*d[5mC]*dG*d[5mC]*dA*dG*dG*d[5mC]*dT*dG*k[5mC]*kG*k[5mC]; antisense) [compound 798758]", "% inhibition of SMAD7 mRNA expression": 0}, {"substance": "798759 (kG*kG*k[5mC]*dG*dG*d[5mC]*dT*dG*d[5mC]*dG*d[5mC]*dA*dG*kG*k[5mC]*kT; antisense) [compound 798759]", "% inhibition of SMAD7 mRNA expression": 40}, {"substance": "798760 (kG*kA*kG*dG*dG*d[5mC]*dG*dG*d[5mC]*dT*dG*d[5mC]*dG*k[5mC]*kA*kG; antisense) [compound 798760]", "% inhibition of SMAD7 mRNA expression": 47}, {"substance": "798761 (kG*kA*k[5mC]*dG*dA*dG*dG*dG*d[5mC]*dG*dG*d[5mC]*dT*kG*k[5mC]*kG; antisense) [compound 798761]", "% inhibition of SMAD7 mRNA expression": 39}, {"substance": "798762 (kT*kA*kG*dG*dA*d[5mC]*dG*dA*dG*dG*dG*d[5mC]*dG*kG*k[5mC]*kT; antisense) [compound 798762]", "% inhibition of SMAD7 mRNA expression": 56}, {"substance": "798763 (kG*kA*kG*dT*dA*dG*dG*dA*d[5mC]*dG*dA*dG*dG*kG*k[5mC]*kG; antisense) [compound 798763]", "% inhibition of SMAD7 mRNA expression": 53}, {"substance": "798765 (kA*kA*k[5mC]*dA*d[5mC]*dT*dT*dT*dG*d[5mC]*dA*d[5mC]*dA*kG*k[5mC]*kA; antisense) [compound 798765]", "% inhibition of SMAD7 mRNA expression": 63}, {"substance": "798773 (kT*kG*kA*d[5mC]*dT*dT*d[5mC]*d[5mC]*dG*dA*dG*dG*dA*kA*kT*kG; antisense) [compound 798773]", "% inhibition of SMAD7 mRNA expression": 40}, {"substance": "798774 (kT*kT*kG*dA*d[5mC]*dT*dT*d[5mC]*d[5mC]*dG*dA*dG*dG*kA*kA*kT; antisense) [compound 798774]", "% inhibition of SMAD7 mRNA expression": 12}, {"substance": "798775 (k[5mC]*k[5mC]*kT*d[5mC]*dT*dT*dG*dA*d[5mC]*dT*dT*d[5mC]*d[5mC]*kG*kA*kG; antisense) [compound 798775]", "% inhibition of SMAD7 mRNA expression": 0}, {"substance": "798776 (kA*k[5mC]*kA*d[5mC]*dA*dG*d[5mC]*d[5mC]*dT*d[5mC]*dT*dT*dG*kA*k[5mC]*kT; antisense) [compound 798776]", "% inhibition of SMAD7 mRNA expression": 34}, {"substance": "798777 (kG*k[5mC]*kA*dA*d[5mC]*dA*d[5mC]*dA*dG*d[5mC]*d[5mC]*dT*d[5mC]*kT*kT*kG; antisense) [compound 798777]", "% inhibition of SMAD7 mRNA expression": 20}, {"substance": "798778 (k[5mC]*kA*k[5mC]*dA*dG*d[5mC]*dA*dA*d[5mC]*dA*d[5mC]*dA*dG*k[5mC]*k[5mC]*kT; antisense) [compound 798778]", "% inhibition of SMAD7 mRNA expression": 64}, {"substance": "798779 (kA*kT*kT*d[5mC]*dA*d[5mC]*dA*dG*d[5mC]*dA*dA*d[5mC]*dA*k[5mC]*kA*kG; antisense) [compound 798779]", "% inhibition of SMAD7 mRNA expression": 31}, {"substance": "798780 (kA*kA*kG*dA*dT*dT*d[5mC]*dA*d[5mC]*dA*dG*d[5mC]*dA*kA*k[5mC]*kA; antisense) [compound 798780]", "% inhibition of SMAD7 mRNA expression": 58}, {"substance": "798785 (k[5mC]*kT*kA*dG*dT*dT*d[5mC]*dG*d[5mC]*dA*dG*dA*dG*kT*k[5mC]*kG; antisense) [compound 798785]", "% inhibition of SMAD7 mRNA expression": 0}, {"substance": "798786 (kA*k[5mC]*kT*d[5mC]*dT*dA*dG*dT*dT*d[5mC]*dG*d[5mC]*dA*kG*kA*kG; antisense) [compound 798786]", "% inhibition of SMAD7 mRNA expression": 11}, {"substance": "798787 (kG*kA*kG*dA*d[5mC]*dT*d[5mC]*dT*dA*dG*dT*dT*d[5mC]*kG*k[5mC]*kA; antisense) [compound 798787]", "% inhibition of SMAD7 mRNA expression": 20}, {"substance": "798788 (kT*k[5mC]*kT*dG*dG*dA*dG*dT*dA*dA*dG*dG*dA*kG*kG*kG; antisense) [compound 798788]", "% inhibition of SMAD7 mRNA expression": 31}, {"substance": "798789 (kG*kT*kA*dT*d[5mC]*dT*dG*dG*dA*dG*dT*dA*dA*kG*kG*kA; antisense) [compound 798789]", "% inhibition of SMAD7 mRNA expression": 44}, {"substance": "798790 (k[5mC]*kG*kG*dG*dT*dA*dT*d[5mC]*dT*dG*dG*dA*dG*kT*kA*kA; antisense) [compound 798790]", "% inhibition of SMAD7 mRNA expression": 49}, {"substance": "798791 (k[5mC]*kA*kT*d[5mC]*dG*dG*dG*dT*dA*dT*d[5mC]*dT*dG*kG*kA*kG; antisense) [compound 798791]", "% inhibition of SMAD7 mRNA expression": 25}, {"substance": "798807 (kA*kT*k[5mC]*dT*dG*dA*dA*dA*dG*d[5mC]*d[5mC]*d[5mC]*d[5mC]*k[5mC]*k[5mC]*kA; antisense) [compound 798807]", "% inhibition of SMAD7 mRNA expression": 64}, {"substance": "798808 (kG*kG*kA*dA*dT*d[5mC]*dT*dG*dA*dA*dA*dG*d[5mC]*k[5mC]*k[5mC]*k[5mC]; antisense) [compound 798808]", "% inhibition of SMAD7 mRNA expression": 44}, {"substance": "798809 (kT*kT*kG*dG*dG*dA*dA*dT*d[5mC]*dT*dG*dA*dA*kA*kG*k[5mC]; antisense) [compound 798809]", "% inhibition of SMAD7 mRNA expression": 2}, {"substance": "798810 (kA*kA*kG*dT*dT*dG*dG*dG*dA*dA*dT*d[5mC]*dT*kG*kA*kA; antisense) [compound 798810]", "% inhibition of SMAD7 mRNA expression": 0}]}, {"test_system": "human SMAD7 mRNA", "experiment": "Antisense inhibition of human SMAD7 mRNA expression in Hep3B cells by 3-10-3 cEt gapmers, 10,000 nM, electroporation (Example 2)", "format": "cell-based", "settings": "Hep3B cells, electroporation, 10,000 nM antisense oligonucleotide, approximately 24 hours, RTS5062, relative to untreated control cells", "procedure,_shortened": "as §1", "units": {"% inhibition of SMAD7 mRNA expression": "%"}, "values": [{"substance": "798806 (kT*kG*kA*dA*dA*dG*d[5mC]*d[5mC]*d[5mC]*d[5mC]*d[5mC]*d[5mC]*dA*kG*kG*kG; antisense) [compound 798806]", "% inhibition of SMAD7 mRNA expression": 50}]}]}
